From patent US11285144B2, “Use of CDK8 inhibitors to treat diseases of inflammation and autoimmunity” (THE BROAD INSTITUTE, INC., priority 2016, dated 2022) come the findings set out here.

Molecules are shown by their SMILES. “Also recorded” adds a separate entry of the source.

Test [1] relates to Cyclin C/CDK8 complexes in BMDCs. The test can be described thus: Cytokine production by R848-stimulated BMDCs from CcncΔ/Δ or Ccncf/f mice. Type of test: cell-based, mouse. On the procedure: Next, to determine whether IL-10 potentiation by CDK8 inhibitors requires functional Cyclin C/CDK8 complexes, differentiation was performed of BMDCs from CcncΔ/Δ mice in which Cyclin C can be specifically disrupted in hematopoietic cells relative to Ccncf/f littermates, which lack the polyinosinic:polycytidylic acid (polyI:C)-responsive Mx1-Cre (Li et al., Nature Cell Biology 16; 1080, 2014) (FIG. 11a). […] The impaired response of BMDCs lacking Cyclin C to BRD6989 and dCA are consistent with a model in which CDK8 restrains IL-10 production during activation of wild type myeloid cells.

The subject of test [2] is naïve, splenic CD4+ T cells. The test can be described thus: IL-10 production during ex vivo differentiation of Tregs. Type of test: cell-based. On the procedure:
FIG. 10—Cellular activities of CDK8 inhibitors. […] (b) Effect of CDK7 inhibitor THZ1 on viability and IL-10 production of R848-stimulated BMDCs (each point corresponds to mean±S.D.; n=4 biological replicates from 1 independent experiment). (c) IL-10 levels were quantified in tissue culture media generated during differentiation of naïve, splenic CD4+ T cells into Treg's in the presence of dCA (0.1 μM) or BRD6989 (5 μM) (each point correspond to mean±S.D.; n=3 biological replicates from 1 independent experiment; *, P<0.05; n.s., not significant using one-way ANOVA with Dunnett's post-test). Data from all panels is representative of at least 2 independent experiments.
(§1) Pre-treatment with these CDK8/19 inhibitors recapitulated the IL-10 potentiating activity of BRD6989 in both BMDCs (FIG. 9b) along with human DCs derived from two independent donors in the context of R848 stimulation (FIGS. 9c and 10a).

The target in test [3] is T1, Cyclin C/CDK8 (Homo sapiens, UniProt P49336). Description: Binding to Cyclin C/CDK8 complex. The source says: (§2) Given that the pyridine core of BRD6989 is a common kinase-binding motif (Xing et al., J Comput Aided Mol Des 28:13-23, 2014), its activity against 414 kinases was profiled using a series of binding and activity assays. […] Binding of BRD6989 to CDK8, and its paralog CDK19, was confirmed using an orthogonal kinase-profiling format.
T1 sequence (P49336 whole entry, species assumed): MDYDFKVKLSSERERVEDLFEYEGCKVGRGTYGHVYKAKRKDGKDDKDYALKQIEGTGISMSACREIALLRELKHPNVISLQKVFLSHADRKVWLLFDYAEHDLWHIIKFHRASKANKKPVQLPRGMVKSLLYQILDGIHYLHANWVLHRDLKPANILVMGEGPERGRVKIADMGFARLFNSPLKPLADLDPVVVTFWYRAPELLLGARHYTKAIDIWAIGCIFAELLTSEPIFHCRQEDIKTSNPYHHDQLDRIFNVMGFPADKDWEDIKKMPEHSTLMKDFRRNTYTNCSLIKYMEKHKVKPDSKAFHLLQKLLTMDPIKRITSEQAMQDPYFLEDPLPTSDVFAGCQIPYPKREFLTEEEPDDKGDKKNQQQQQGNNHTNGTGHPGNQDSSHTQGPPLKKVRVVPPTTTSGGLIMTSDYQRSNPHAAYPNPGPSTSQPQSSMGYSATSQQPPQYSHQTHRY
T1 sequence (P24863 whole entry partner, species assumed): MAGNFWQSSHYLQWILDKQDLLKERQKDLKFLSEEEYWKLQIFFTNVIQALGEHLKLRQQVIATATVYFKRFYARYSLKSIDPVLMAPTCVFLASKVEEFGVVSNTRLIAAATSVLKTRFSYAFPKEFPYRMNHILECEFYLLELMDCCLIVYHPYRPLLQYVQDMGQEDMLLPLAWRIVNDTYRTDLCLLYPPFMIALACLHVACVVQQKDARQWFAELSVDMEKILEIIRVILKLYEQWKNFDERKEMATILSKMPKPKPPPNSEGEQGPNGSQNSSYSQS

Test [4] concerns STAT1. The test can be described thus: STAT1 phosphorylation in IFNγ-stimulated BMDCs. Type of test: cell-based, mouse. The following applies: IFNγ-induced. The source says: (§3) Together, these kinase profiling, binding assay, enzyme inhibition and cell-based data identify the Mediator-associated kinases CDK8, and to a lesser degree CDK19, as molecular targets of BRD6989.
For test [5], the system named is 414 kinases. Description: Kinase profiling by binding and activity assays.
From the text: as §2

For test [6], the target named is T1, Cyclin C/CDK8. Description: Kinase activity of recombinant Cyclin C/CDK8. The test is classed as biochemical. The following applies: recombinant complex.
From the text: as §3

The subject of test [7] is Cyclin B/CDK1, Cyclin A/CDK2, p35/CDK5, Cyclin H/CDK7, Cyclin T/CDK9. Description: Activity of other CDKs. The note with it: CDKs involved in cell cycle regulation. Type of test: biochemical.
From the text: (a) Binding of the indicated concentrations of BRD6989 to CDK8/Cyclin C complexes (each point corresponds to mean±S.D.; n=3 biological replicates from 1 independent experiment). (b-f) Effect of the indicated concentrations of BRD6989 on the activity of (b) Cyclin B/CDK1, (c) Cyclin A/CDK2, (d) p35/CDK5, (e) Cyclin H/CDK7, and (f) Cyclin T/CDK9 (each point corresponds to mean±S.D.; n=3 biological replicates from 1 independent experiment).
as §3

The test system of test [8] is R848-stimulated BMDCs. Description: Cytokine production by R848-stimulated BMDCs. Type of test: cell-based, mouse.
From the text: (§4) The pyridinyl tetrahydroquinoline BRD6989 (10) emerged as a prioritized hit in the screen (FIG. 2a and Table 2). […] Thus, BRD6989 enhances IL-10 production in activated human and murine macrophages and dendritic cells by a mechanism that appears most pronounced following stimulation of toll-like receptors-7 (TLR7) and TLR8 by R848.
as §1

For test [9], the system named is human, monocyte-derived DCs. The test can be described thus: IL-10 production in human monocyte-derived DCs stimulated with R848. Type of test: cell-based.
From the text: as §4, §1

In test [10] the target is recombinant Cyclin C/CDK19 (Homo sapiens, UniProt Q9BWU1). Description: Kinase activity of recombinant Cyclin C/CDK19. Type of test: biochemical. The note with it: recombinant complex.
recombinant Cyclin C/CDK19, sequence (Q9BWU1 whole entry, species assumed): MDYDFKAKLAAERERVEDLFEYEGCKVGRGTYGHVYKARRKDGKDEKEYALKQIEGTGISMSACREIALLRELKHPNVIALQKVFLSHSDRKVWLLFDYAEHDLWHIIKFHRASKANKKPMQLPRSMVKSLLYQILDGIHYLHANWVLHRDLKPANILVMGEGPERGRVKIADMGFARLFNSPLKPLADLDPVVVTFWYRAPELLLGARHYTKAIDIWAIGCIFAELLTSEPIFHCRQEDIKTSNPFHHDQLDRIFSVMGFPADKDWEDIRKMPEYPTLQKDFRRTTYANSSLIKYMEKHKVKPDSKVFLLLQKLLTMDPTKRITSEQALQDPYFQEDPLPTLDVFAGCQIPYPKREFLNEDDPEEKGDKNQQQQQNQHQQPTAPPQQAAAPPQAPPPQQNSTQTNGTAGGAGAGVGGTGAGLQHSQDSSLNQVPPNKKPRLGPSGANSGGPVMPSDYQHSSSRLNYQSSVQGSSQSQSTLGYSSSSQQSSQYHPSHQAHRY
recombinant Cyclin C/CDK19, sequence (P24863 whole entry partner, species assumed): as the sequence (P24863 whole entry partner, species assumed) above
From the text: as §3

Test [11] deals with responder CD4+ T cells. Description: Treg suppression of responder CD4+ T cell proliferation in vitro. The test is classed as cell-based, mouse. The following applies: Tregs generated in the presence of CDK8 inhibitor. As to the method: FIG. 19—Suppressing T-cell proliferation in vitro. Treg cells are co-cultured at increasing dilutions with CFSE-labeled responder CD4+ T cells and their ability to suppress responder T cell proliferation upon anti-CD3/CD28 stimulation is assessed. Naive CD4+ T cells from Foxp3IRES-GFP mice were cultured under either optimal conditions for Treg differentiation (Treg Hi) or sub-optimal Treg differentiation conditions in the presence of BRD6989. The resulting GFP+ Treg cells were sorted by FACS. […] Assay was performed as described in eLife 2015; 4:e05920.
Imbalances between anti-inflammatory (FoxP3+ Treg) and pro-inflammatory (TH1 and TH17) CD4+ T cell lineages can lead to pathogenic inflammations in a number of diseases contexts. Therapeutic strategies that enhance FoxP3+ Treg differentiation and/or function are being pursued for treatment of immune and inflammatory disorders. Treatment of naïve CD4+ T cells in the presence of multiple structural classes of CDK8 inhibitors can enhance differentiation into FoxP3+Tregs (FIG. 16).

In test [12] the test system is Zymosan A-stimulated BMDCs. The test can be described thus: Cytokine production by Zymosan A-stimulated BMDCs. The test is classed as cell-based, mouse.
From the text: Towards the goal of identifying new mechanisms of IL-10 regulation, 59,346 small molecules were screened for the ability to enhance IL-10 production by activated bone marrow-derived dendritic cells (BMDCs) using a high-throughput assay developed previously (Sundberg et al., PNAS 111:12468-12473, 2014). Compounds were derived from both commercial collections and structurally and skeletally diverse libraries prepared by diversity-oriented synthesis (DOS). More than 60 hit compounds were identified that reproducibly enhance IL-10 production in a concentration-dependent manner (Table 1). Three distinct chemotypes were prioritized for follow-up based on potency and an initial analysis of structure-activity relationship (SAR) with respect to core scaffold, stereochemistry and side chains (FIG. 2a).
as §4

Usually IC50 stands for the concentration at which inhibition is half-maximal. A word on the EC50: it is the midpoint of the concentration-response curve. Take `CC1CCc2nc(N)c(C#N)c(-c3cccnc3)c2C1` (stereo not shown) [BRD6989]: in test [1], the “IL-10 upregulation in Ccncf/f BMDCs” value was “remained intact”. Also, in test [1] (Cyclin C deleted), the “IL-10 upregulation in CcncΔ/Δ BMDCs” value was “failed to upregulate IL-10”. Besides, the “IL-6 production in CcncΔ/Δ BMDCs” value in [1] (saturating concentrations) is listed as “no further reduction”. The “IL-10 production during Treg differentiation” value in test [2] is reported as “neither dCA nor BRD6989 dramatically increased IL-10 production”. Further, the IC50 in [3] was roughly 200 nM; in [6], roughly 500 nM; in test [10], greater than 30000 nM. In addition, in [4], the “JAK-mediated phosphorylation of STAT1 Y701” value is given as “did not affect”. The “phosphorylation of STAT1 at S727” value is given as “inhibited; also recorded: suppresses phosphorylation” in [4] and “Dose dependent inhibition of CDK8 dependent” in test [4] (listed as BRD-6989). Further, the “secondary targets in kinase profiling” value in [5] (both kinase profiling experiments) is “phosphatidylinositol-4,5-bisphosphate 3-kinases C2A (PI3KC2A) and PI3KCG as secondary targets”. Besides, the kinase selectivity result in test [5] (kinase profiling) is on record as “remarkable selectivity”. Further, the “inhibition of several other CDKs” value in test [7] was “not the activity of several CDKs involved in cell cycle regulation; also recorded: does not inhibit”. In addition, the IL-10 production result is “greater fold-increase in IL-10 production” in test [8] and “up-regulated IL-10” in [9]. The “suppression of CD4+ T cell proliferation by inhibitor-induced Tregs” value in test [11] was “suppressed the proliferation of co-cultured responder CD4+ T cells in vitro at each dilution”. For the same compound, the EC50 in test [12] (Mus musculus, BMDC, pre-treatment 48 hr, Zymosan A 18 hr, read-out: IL-10 production EC50) was roughly 1000 nM. Also, the “production of IL-12p40” value in test [12] (Zymosan A-induced) is reported as “largely unchanged”. In addition, in test [12] (Zymosan A-induced), the “production of TNFα” value was “largely unchanged”. For the same compound, the “release of IL-6” value in [12] (Zymosan A-induced) was “suppressed”. Further, the “production of IL-1β” value in test [12] (Zymosan A-stimulated / activated BMDCs) was “largely unchanged”. The IL-1β production entry in test [12] (stimulation with R848 or Zymosan A) is reported as “minimally elevates IL-1β production”.
